Data reported in patent publication US9403796B2, “Amidomethyl-substituted oxindole derivatives and the use thereof for the treatment of vasopressin-dependent illnesses” (AbbVie Deutschland GmbH & Co. KG, priority 2007, dated 2016).

How the values were obtained:
[1] = molecular target: T1, human vasopressin V1b receptor (Homo sapiens, UniProt P47901); assay: Vasopressin V1b receptor binding assay; settings: CHO-K1 membranes, 3H-AVP displacement
T1 construct: expressed in transfected cells; host or cells: CHO-K1 (cell line hV1b_3H2_CHO), membrane preparation
T1 sequence (P47901 1-424): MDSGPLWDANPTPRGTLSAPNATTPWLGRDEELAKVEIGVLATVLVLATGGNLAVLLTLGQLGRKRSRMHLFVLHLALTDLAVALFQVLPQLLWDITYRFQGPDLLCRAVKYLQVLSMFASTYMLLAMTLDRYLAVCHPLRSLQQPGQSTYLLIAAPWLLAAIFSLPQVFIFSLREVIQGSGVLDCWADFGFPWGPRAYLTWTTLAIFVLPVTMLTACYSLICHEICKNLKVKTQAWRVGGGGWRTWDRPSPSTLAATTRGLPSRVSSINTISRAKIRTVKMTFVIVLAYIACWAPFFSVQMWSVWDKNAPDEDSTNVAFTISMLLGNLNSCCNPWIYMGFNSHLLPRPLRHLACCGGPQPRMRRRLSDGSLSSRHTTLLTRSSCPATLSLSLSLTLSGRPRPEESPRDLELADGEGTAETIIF
Procedure: The substance concentration was further diluted 1:5 in the assay mixture (2% DMSO in the mixture).
The nonspecific binding was determined with […] (Bachem #H1780). All determinations were carried out as triplicate determinations.

[2] = Determination of the microsomal half-life / microsomal clearance; format: in vitro ADME; settings: pH 7.4; human liver microsomes, 0.5 μM test substance
Procedure: The metabolic stability of the compounds of the invention was determined in the following assay.
The test substances were incubated in a concentration of 0.5 μM as follows:
0.5 μM test substance are preincubated together with liver microsomes from different species (from rat, human or other species) (0.25 mg of microsomal protein/ml) in 0.05 M potassium phosphate buffer of pH 7.4 in microtiter plates at 37° C. for 5 min. The reaction is started by adding NADPH (1 mg/mL). After 0, 5, 10, 15, 20 and 30 min, 50 μl aliquots are removed, and the reaction is immediately stopped and cooled with the same volume of acetonitrile. The samples are frozen until analyzed. The remaining concentration of undegraded test substance is determined by MSMS. The half-life (T½) is determined from the gradient of the signal of test substance/unit time plot, it being possible to calculate the half-life of the test substance, assuming first order kinetics, from the decrease in the concentration of the compound with time. The microsomal clearance (mCl) is calculated from mCl=In2/T½/(content of microsomal protein in mg/ml)×1000 [ml/min/mg] (modified from references: Di, The Society for Biomolecular Screening, 2003, 453-462; Obach, DMD, 1999 vol. 27. N 11, 1350-1359).

[3] = molecular target: human vasopressin V1a receptor (Homo sapiens, UniProt P37288); assay: Vasopressin V1a receptor binding assay; settings: selectivity quotient, human V1a vs human V1b
Sequence of human vasopressin V1a receptor (P37288 whole entry): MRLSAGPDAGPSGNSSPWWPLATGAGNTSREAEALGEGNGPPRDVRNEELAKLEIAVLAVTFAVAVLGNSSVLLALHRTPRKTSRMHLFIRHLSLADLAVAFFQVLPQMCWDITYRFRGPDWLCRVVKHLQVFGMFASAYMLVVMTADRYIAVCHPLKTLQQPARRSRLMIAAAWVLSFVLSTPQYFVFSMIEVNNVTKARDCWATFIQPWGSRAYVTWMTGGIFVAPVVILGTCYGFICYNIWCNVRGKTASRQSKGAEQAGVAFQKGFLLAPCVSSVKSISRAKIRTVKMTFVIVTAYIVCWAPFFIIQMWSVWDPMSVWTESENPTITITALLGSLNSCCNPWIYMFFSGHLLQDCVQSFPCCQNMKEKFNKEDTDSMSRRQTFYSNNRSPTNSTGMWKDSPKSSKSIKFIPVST

SMILES | Ki [1] [nM] | microsomal CLint at 0.5 μM [2] [µL/min/mg] | Ki(h-V1a)/Ki(h-V1b) [3]
CCOc1ncccc1C1(CC(=O)N2CCC(N3CCN(C)CC3)CC2)C(=O)N(S(=O)(=O)c2ccccc2)c2ccc(C#N)cc21.O=C(O)C(F)(F)F (racemic) [Example 1, (±)-1-Phenylsulfonyl-3-(2-ethoxypyridin-3-yl)-3-{2-[4-(4-methylpiperazin-1-yl)piperidin-1-yl]-2-oxoethyl}-2-oxo-2,3-dihydro-1H-indole-5-carbonitrile, trifluoroacetic acid salt] | 3 to 30 | < 100 | ++ (15-30)
CCOc1ncccc1C1(CC(=O)N2CCC(N3CCN(CC)CC3)CC2)C(=O)N(S(=O)(=O)c2ccc(OC)cc2OC)c2ccc(C#N)cc21.O=C(O)C(F)(F)F (racemic) [Example 2, (±)-1-(2,4-Dimethoxyphenylsulfonyl)-3-(2-ethoxypyridin-3-yl)-3-{2-[4-(4-ethylpiperazin-1-yl)piperidin-1-yl]-2-oxoethyl}-2-oxo-2,3-dihydro-1H-indole-5-carbonitrile trifluoroacetic acid salt] | < 3 | < 100 | +++ (>30)
CCOc1ncccc1C1(CC(=O)N2CCC(N3CCN(CC)CC3)CC2)C(=O)N(S(=O)(=O)c2ccccc2)c2ccc(C#N)cc21.O=C(O)C(F)(F)F (racemic) [Example 3, (±)-1-Phenylsulfonyl-3-(2-ethoxypyridin-3-yl)-3-{2-[4-(4-ethylpiperazin-1-yl)piperidin-1-yl]-2-oxoethyl}-2-oxo-2,3-dihydro-1H-indole-5-carbonitrile, trifluoroacetic acid salt] | 3 to 30 | < 100 | +++ (>30)
CCOc1ncccc1C1(CC(=O)N2CCC(N3CCN(CC)CC3)CC2)C(=O)N(S(=O)(=O)c2ccccc2OC)c2ccc(C#N)cc21.O=C(O)C(F)(F)F (racemic) [Example 4, (±)-3-(2-Ethoxypyridin-3-yl)-3-{2-[4-(4-ethylpiperazin-1-yl)piperidin-1-yl]-2-oxoethyl}-1-(2-methoxyphenylsulfonyl)-2-oxo-2,3-dihydro-1H-indole-5-carbonitrile, trifluoroacetic acid salt] | 3 to 30 | 100 to 200 | +++ (>30)
CCOc1ncccc1C1(CC(=O)N2CCC(N3CCN(C)CC3)CC2)C(=O)N(S(=O)(=O)c2ccccc2OC)c2ccc(C#N)cc21.O=C(O)C(F)(F)F (racemic) [Example 5, (±)-3-(2-Ethoxypyridin-3-yl)-1-(2-methoxyphenylsulfonyl)-3-{2-[4-(4-methylpiperazin-1-yl)-piperidin-1-yl]-2-oxoethyl}-2-oxo-2,3-dihydro-1H-indole-5-carbonitrile, trifluoroacetic acid] | 3 to 30 | 100 to 200 | ++ (15-30)
CCOc1ncccc1C1(CC(=O)N2CCC(N3CCN(C)CC3)CC2)C(=O)N(S(=O)(=O)c2ccc(OC)cc2OC)c2ccc(C#N)cc21.O=C(O)C(F)(F)F (racemic) [Example 6, (±)-1-(2,4-Dimethoxyphenylsulfonyl)-3-(2-ethoxypyridin-3-yl)-3-{2-[4-(4-methylpiperazin-1-yl)piperidin-1-yl]-2-oxoethyl}-2-oxo-2,3-dihydro-1H-indole-5-carbonitrile, trifluoroacetic acid salt] | < 3 | < 100 | +++ (>30)
CCOc1ncccc1C1(CC(=O)N2CCN(C3CCN(C)CC3)CC2)C(=O)N(S(=O)(=O)c2ccccc2)c2ccc(C#N)cc21.O=C(O)C(F)(F)F (racemic) [Example 7, (±)-1-Phenylsulfonyl-3-(2-ethoxypyridin-3-yl)-3-{2-[4-(1-methylpiperidin-4-yl)piperazin-1-yl]-2-oxoethyl}-2-oxo-2,3-dihydro-1H-indole-5-carbonitrile, trifluoroacetic acid salt] | 3 to 30 | < 100 | +++ (>30)
CCOc1ncccc1C1(CC(=O)N2CCN(C3CCN(C)CC3)CC2)C(=O)N(S(=O)(=O)c2ccccc2OC)c2ccc(C#N)cc21.O=C(O)C(F)(F)F (racemic) [Example 8, (±)-3-(2-Ethoxypyridin-3-yl)-1-(2-methoxyphenylsulfonyl)-3-{2-[4-(1-methylpiperidin-4-yl)-piperazin-1-yl]-2-oxoethyl}-2-oxo-2,3-dihydro-1H-indole-5-carbonitrile, trifluoroacetic acid salt] | 3 to 30 | < 100 | +++ (>30)
CCOc1ncccc1C1(CC(=O)N2CCN(C3CCN(C)CC3)CC2)C(=O)N(S(=O)(=O)c2ccc(OC)cc2OC)c2ccc(C#N)cc21.O=C(O)C(F)(F)F (racemic) [Example 9, (±)-1-(2,4-Dimethoxyphenylsulfonyl)-3-(2-ethoxypyridin-3-yl)-3-{2-[4-(1-methylpiperidin-4-yl)piperazin-1-yl]-2-oxoethyl}-2-oxo-2,3-dihydro-1H-indole-5-carbonitrile, trifluoroacetic acid salt] | < 3 | < 100 | +++ (>30)
CCOc1ncccc1C1(CC(=O)N2CCN(C3CCN(CC)CC3)CC2)C(=O)N(S(=O)(=O)c2ccc(OC)cc2OC)c2ccc(C#N)cc21 (single isomer, unassigned; (-)) [Example 10B, (−)1-(2,4-Dimethoxyphenylsulfonyl)-3-(2-ethoxypyridin-3-yl)-3-{2-[4-(1-ethylpiperidin-4-yl)-piperazin-1-yl]-2-oxoethyl}-2-oxo-2,3-dihydro-1H-indole-5-carbonitrile] | < 3 | < 100 | +++ (>30)
